{
  "source": "ChEMBL document CHEMBL1201862",
  "about": "“PubChem BioAssay data set” (2004)",
  "test_in_all_cases": "inhibition of tumour cell growth, NCI panel, 48 h",
  "key": {"KM-20L2": {"test_system": "KM-20L2"}, "HCT-116": {"test_system": "HCT-116"}, "UACC-62": {"test_system": "UACC-62"}, "KM12": {"test_system": "KM12"}, "IGROV-1": {"test_system": "IGROV-1"}, "M19-MEL": {"test_system": "M19-MEL"}, "CCRF-CEM": {"test_system": "CCRF-CEM"}, "HOP-92": {"test_system": "HOP-92"}, "TK-10": {"test_system": "TK-10"}, "HT-29": {"test_system": "HT-29"}, "HOP-18": {"test_system": "HOP-18"}, "SR": {"test_system": "SR"}, "HCT-15": {"test_system": "HCT-15"}, "SN12C": {"test_system": "SN12C"}, "Malme-3M": {"test_system": "Malme-3M"}, "DLD-1": {"test_system": "DLD-1"}, "NCI-H460": {"test_system": "NCI-H460"}, "HOP-62": {"test_system": "HOP-62"}, "LOX IMVI": {"test_system": "LOX IMVI"}, "A498": {"test_system": "A498"}, "MOLT-4": {"test_system": "MOLT-4"}, "NCI-H522": {"test_system": "NCI-H522"}, "UO-31": {"test_system": "UO-31"}, "HCC 2998": {"test_system": "HCC 2998"}, "DMS-273": {"test_system": "DMS-273"}, "U-251": {"test_system": "U-251"}, "UACC-257": {"test_system": "UACC-257"}, "RXF 631": {"test_system": "RXF 631"}, "OVCAR-8": {"test_system": "OVCAR-8"}, "LXFL 529": {"test_system": "LXFL 529"}, "K562": {"test_system": "K562"}, "SF-295": {"test_system": "SF-295"}, "SNB-19": {"test_system": "SNB-19"}, "NCI-H226": {"test_system": "NCI-H226"}, "SK-OV-3": {"test_system": "SK-OV-3"}, "SNB-75": {"test_system": "SNB-75"}, "OVCAR-5": {"test_system": "OVCAR-5"}, "NCI-H23": {"test_system": "NCI-H23"}, "786-0": {"test_system": "786-0"}, "A549": {"test_system": "A549"}, "EKVX": {"test_system": "EKVX"}, "SNB-78": {"test_system": "SNB-78"}, "RPMI-8226": {"test_system": "RPMI-8226"}, "SK-MEL-28": {"test_system": "SK-MEL-28"}, "SK-MEL-2": {"test_system": "SK-MEL-2"}, "SK-MEL-5": {"test_system": "SK-MEL-5"}, "DMS-114": {"test_system": "DMS-114"}, "OVCAR-3": {"test_system": "OVCAR-3"}, "M14": {"test_system": "M14"}, "COLO 205": {"test_system": "COLO 205"}, "CAKI-1": {"test_system": "CAKI-1"}, "RXF 393": {"test_system": "RXF 393"}, "HL-60": {"test_system": "HL-60"}, "OVCAR-4": {"test_system": "OVCAR-4"}, "SF-268": {"test_system": "SF-268"}, "SW-620": {"test_system": "SW-620"}, "ACHN": {"test_system": "ACHN"}},
  "note": "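Cultured in 96-well plates, cells were exposed to test compound for 48 hours across five concentrations. GI50: concentration for 50% inhibition of growth.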 Activity calls are given as the source filed them. Cut-off read from the data, not from the text of the source: active = GI50 up to about 1.1 µM and inactive = higher.",
  "data": [
    {"smiles": "CCCCCCCCCCCC(=O)OCCOCCOCCOCCOCCOCc1ccc(OC)cc1", "values": [
      {"measurement": "GI50", "setting": "KM-20L2", "result": "> 100 µM (inactive)"},
      {"measurement": "GI50", "setting": "HCT-116", "result": "> 100 µM (inactive)"},
      {"measurement": "GI50", "setting": "UACC-62", "result": "> 100 µM (inactive)"},
      {"measurement": "GI50", "setting": "KM12", "result": "> 100 µM (inactive)"},
      {"measurement": "GI50", "setting": "IGROV-1", "result": "88.5 µM (inactive)"},
      {"measurement": "GI50", "setting": "M19-MEL", "result": "> 100 µM (inactive)"},
      {"measurement": "GI50", "setting": "CCRF-CEM", "result": "> 100 µM (inactive)"},
      {"measurement": "GI50", "setting": "HOP-92", "result": "> 100 µM (inactive)"},
      {"measurement": "GI50", "setting": "TK-10", "result": "> 100 µM (inactive)"},
      {"measurement": "GI50", "setting": "HT-29", "result": "> 100 µM (inactive)"},
      {"measurement": "GI50", "setting": "HOP-18", "result": "> 100 µM (inactive)"},
      {"measurement": "GI50", "setting": "SR", "result": "> 100 µM (inactive)"},
      {"measurement": "GI50", "setting": "HCT-15", "result": "> 100", "unit": "µM"},
      {"measurement": "GI50", "setting": "SN12C", "result": "> 100 µM (inactive)"},
      {"measurement": "GI50", "setting": "Malme-3M", "result": "> 100 µM (inactive)"},
      {"measurement": "GI50", "setting": "DLD-1", "result": "> 100 µM (inactive)"},
      {"measurement": "GI50", "setting": "NCI-H460", "result": "> 100 µM (inactive)"},
      {"measurement": "GI50", "setting": "HOP-62", "result": "> 100 µM (inactive)"},
      {"measurement": "GI50", "setting": "LOX IMVI", "result": "> 100 µM (inactive)"},
      {"measurement": "GI50", "setting": "A498", "result": "> 100 µM (inactive)"},
      {"measurement": "GI50", "setting": "MOLT-4", "result": "73.6 µM (inactive)"},
      {"measurement": "GI50", "setting": "NCI-H522", "result": "> 100 µM (inactive)"},
      {"measurement": "GI50", "setting": "UO-31", "result": "> 100 µM (inactive)"},
      {"measurement": "GI50", "setting": "HCC 2998", "result": "> 100 µM (inactive)"},
      {"measurement": "GI50", "setting": "DMS-273", "result": "> 100 µM (inactive)"},
      {"measurement": "GI50", "setting": "U-251", "result": "> 100 µM (inactive)"},
      {"measurement": "GI50", "setting": "UACC-257", "result": "> 100 µM (inactive)"},
      {"measurement": "GI50", "setting": "RXF 631", "result": "> 100 µM (inactive)"},
      {"measurement": "GI50", "setting": "OVCAR-8", "result": "> 100 µM (inactive)"},
      {"measurement": "GI50", "setting": "LXFL 529", "result": "> 100 µM (inactive)"},
      {"measurement": "GI50", "setting": "K562", "result": "> 100 µM (inactive)"},
      {"measurement": "GI50", "setting": "SF-295", "result": "> 100 µM (inactive)"},
      {"measurement": "GI50", "setting": "SNB-19", "result": "> 100 µM (inactive)"},
      {"measurement": "GI50", "setting": "NCI-H226", "result": "> 100 µM (inactive)"},
      {"measurement": "GI50", "setting": "SK-OV-3", "result": "> 100 µM (inactive)"},
      {"measurement": "GI50", "setting": "SNB-75", "result": "> 100 µM (inactive)"},
      {"measurement": "GI50", "setting": "OVCAR-5", "result": "> 100 µM (inactive)"},
      {"measurement": "GI50", "setting": "NCI-H23", "result": "> 100 µM (inactive)"},
      {"measurement": "GI50", "setting": "786-0", "result": "> 100 µM (inactive)"},
      {"measurement": "GI50", "setting": "A549", "result": "> 100 µM (inactive)"},
      {"measurement": "GI50", "setting": "EKVX", "result": "> 100 µM (inactive)"},
      {"measurement": "GI50", "setting": "SNB-78", "result": "> 100 µM (inactive)"},
      {"measurement": "GI50", "setting": "RPMI-8226", "result": "> 100 µM (inactive)"},
      {"measurement": "GI50", "setting": "SK-MEL-28", "result": "> 100 µM (inactive)"},
      {"measurement": "GI50", "setting": "SK-MEL-2", "result": "> 100 µM (inactive)"},
      {"measurement": "GI50", "setting": "SK-MEL-5", "result": "> 100 µM (inactive)"},
      {"measurement": "GI50", "setting": "DMS-114", "result": "> 100 µM (inactive)"},
      {"measurement": "GI50", "setting": "OVCAR-3", "result": "> 100 µM (inactive)"},
      {"measurement": "GI50", "setting": "M14", "result": "> 100 µM (inactive)"},
      {"measurement": "GI50", "setting": "COLO 205", "result": "> 100 µM (inactive)"},
      {"measurement": "GI50", "setting": "CAKI-1", "result": "> 100 µM (inactive)"},
      {"measurement": "GI50", "setting": "RXF 393", "result": "> 100 µM (inactive)"},
      {"measurement": "GI50", "setting": "HL-60", "result": "14.8 µM (inactive)"},
      {"measurement": "GI50", "setting": "OVCAR-4", "result": "> 100 µM (inactive)"},
      {"measurement": "GI50", "setting": "SF-268", "result": "> 100 µM (inactive)"},
      {"measurement": "GI50", "setting": "SW-620", "result": "> 100 µM (inactive)"},
      {"measurement": "GI50", "setting": "ACHN", "result": "> 100 µM (inactive)"}
    ]}
  ]
}
